Common to all, as to format: cell-based, human
Experiment [1] has as its system HMEC. Description: Inhibition of contraction: alveologenesis after detachment of attached collagen gels. The note with it: donor M10. How it is done:
(§1) For contraction assays, 5×10^3 HMEC were plated or 3×10^3 sorted B+ cells/400 μl collagen gel and 1×10^4 LP cells/400 μl collagen gel. At day 12 of culture, 2 ng/μl TGF-β1 (R&D Systems) was added to the culture medium once. For inhibition of contraction experiments, 3×10^3 HMEC (Donor M10) were plated/400 μl collagen gel, and the gels were left attached to the culture dish. At day 13 of culture, when structures had formed, gels were detached and 10 μM Blebbistatin or 5 μM Y-27632 were added to the culture medium every 24 hours. To determine the number of cells per gel, collagen gels were minced using a scalpel, digested with 300 U/ml collagenase I (Sigma) for 1 hour at 37° C., followed by 0.15% trypsin (5 minutes at 37° C.), and filtered to obtain single cells. Cells were counted with a hemocytometer. Images of structures in the gels were acquired on a Leica DM IL LED microscope equipped with a HiPlan 10×/0.22 PH1 objective and images of whole gels were taken with a Zeiss SteREO Lumar.V12 microscope with a NeoLumar S 0.8×objective (6.4× Zoom).

In experiment [2] the test system is freshly isolated HMEC. Description: Structure formation by freshly isolated HMEC in floating collagen I gels. The text has this: Mammary gland tissue was obtained from healthy women undergoing reduction mammoplasty at the Nymphenburg Clinic for Plastic and Aesthetic Surgery (Christian Gabka), in accordance with the regulations of the ethics committee of the Ludwig-Maximilian University Munich (proposal 397-12). Single cell suspensions of primary HMEC were generated as previously described with minor modifications (Stingl et al., 2005). Briefly, the ductal tree was minced into about 1.0 mm^3 pieces and digested in collagenase I and hyaluronidase (both Sigma), and subsequently with Trypsin-EDTA and dispase (Life Technologies), and then cryopreserved. Before further processing, cells were filtered through a 40 μm strainer, to remove residual tissue fragments and cell aggregates. Cells were seeded in 2D on polystyrene cell culture plates or in collagen I gels in Mammary Epithelial Cell Growth Medium (MECGM, PromoCell) supplemented with 1% Pen/Strep (Invitrogen), 0.5% FCS (Pan Biotech), 3 μM Y-27632 (Biomol) and 10 μM Forskolin (Biomol), unless stated otherwise. After an establishment period of 5 days, medium was changed to MECGM supplemented with 1% Pen/Strep and 10 μM Forskolin, unless stated otherwise.
Single cell suspensions containing the desired amount of cells were quickly mixed with neutralizing solution, and acidified rat tail collagen I (Corning) was added, resulting in a final collagen I concentration of 1.3 mg/ml. Next, the gel mixture was plated into siloxane-coated 24-well or 48-well plates. After polymerization of the gel, medium with supplements was carefully added and gels were detached from the well. Attached and attached-to-floating gels were prepared in uncoated 24-well plates. Cells were maintained for 8 up to 20 days (shorter periods for quantification and longer periods for long term treatments).
Mammary gland tissue was obtained from healthy women undergoing reduction mammoplasty at the Nymphenburg Clinic for Plastic and Aesthetic Surgery (Prof. Christian Gabka), in accordance with the regulations of the ethics committee of the Ludwig-Maximilian University Munich (proposal 397-12). Single cell suspensions of primary HMEC were generated as previously described with minor modifications (Stingl et al., 2005). Briefly, the ductal tree was minced into about 1 mm^3 pieces and enzymatically digested in tissue digestion buffer (F12:DME/HEPES, 1.5% w/v BSA) supplemented with 1 μg/ml insulin, 300 U/ml collagenase and 100 U/ml hyaluronidase (all Sigma) at 37° C. over night. The stromal compartment was optionally separated by differential centrifugation and cryopreserved. The pellet enriched for epithelial cells was further dissociated in 0.15% Trypsin-EDTA and 5 mg/ml dispase (Life Technologies) and then cryopreserved. Before further processing, cells were filtered through a 40 μm strainer, to remove residual tissue fragments and cell aggregates. Freshly isolated primary HMEC were seeded in Mammary Epithelial Cell Growth Medium (MECGM, PromoCell) supplemented with 1% Pen/Strep (Invitrogen), 0.5% FCS (Pan Biotech), 3 μM Y-27632 (Biomol) and 10 μM Forskolin (Biomol), unless otherwise stated. After an establishment period of 5 days, medium was changed to MECGM supplemented 1% Pen/Strep and 10 μM Forskolin, unless otherwise stated. Upon establishment, medium was replaced every 3-4 days. Cells were maintained in 5% CO2, 3% O2 for the whole culture period. […]

The test system of experiment [3] is HMEC. Description: ELDA of branched structure-forming units in floating collagen gels after 2D-culture. The note with it: 2D-culture in presence of 10 μM Forskolin, donor M4. The text has this: Mammary gland tissue was obtained from healthy women undergoing reduction mammoplasty at the Nymphenburg Clinic for Plastic and Aesthetic Surgery (Christian Gabka), in accordance with the regulations of the ethics committee of the Ludwig-Maximilian University Munich (proposal 397-12). Single cell suspensions of primary HMEC were generated as previously described with minor modifications ([…] et al., 2005). Briefly, the ductal tree was minced into about 1.0 mm^3 pieces and digested in collagenase I and hyaluronidase (both Sigma), and subsequently with Trypsin-EDTA and dispase (Life Technologies), and then cryopreserved. Before further processing, cells were filtered through a 40 μm strainer, to remove residual tissue fragments and cell aggregates. Cells were seeded in 2D on polystyrene cell culture plates or in collagen I gels in Mammary Epithelial Cell Growth Medium (MECGM, PromoCell) supplemented with 1% Pen/Strep (Invitrogen), 0.5% FCS (Pan Biotech), 3 μM Y-27632 (Biomol) and 10 μM Forskolin (Biomol), unless stated otherwise. After an establishment period of 5 days, medium was changed to MECGM supplemented with 1% Pen/Strep and 10 μM Forskolin, unless stated otherwise. […] Gels with at least one branched structure were counted as positive. […] Limiting dilutions were analyzed using a webtool, as described previously (Hu and Smyth, 2009).

In experiment [4] the test system is B+ cells (CD10+/CD49fhi/EpCAM−). Description: Contraction of floating collagen I gels containing B+ cell derived TDLU-like structures. The protocol: as §1, with “At day 12 of culture, 2 ng/μl TGF-β1 (R&D Systems) was added to the culture medium once.” left out
(§2) Size of gels, structures, and cells was determined with the ImageJ tool for measurement of areas. Quantification of structures was carried out using the ImageJ cell counter. Structures with at least two branching points were considered as branched. For branching point analysis, branches were traced, one main branch was set, and one branching point was counted for each side-branch.

Experiment [5] concerns LP cells (CD49f+/EpCAM+). Description: Contraction of floating collagen I gels containing LP-derived spheres. The note with it: 2.0 ng/ml TGF-β1 once. The protocol:
as §1, with “At day 12 of culture, 2 ng/μl TGF-β1 (R&D Systems) was added to the culture medium once.” left out
as §2

Where [6] appears, read: 10 μM Forskolin, continuous treatment, donor M8.

Take `Cc1ccc2c(c1)C(=O)C1(O)CCN(c3ccccc3)C1=N2` (stereo not shown) [Blebbistatin]: the “acquisition of alveolar morphology after gel detachment” value in experiment [1] (10 μM Blebbistatin every 24 hours from detachment at day 13) is given as “prevented”.
For `C=C[C@@]1(C)CC(=O)[C@]2(O)[C@@]3(C)[C@@H](O)CCC(C)(C)[C@@H]3[C@H](O)[C@H](OC(C)=O)[C@@]2(C)O1` [Forskolin], in experiment [2] (setting [6]), the “increase of formation of TDLU-like branched structures” value is given as “approximately 12 fold”, the “increase of formation of non-branched structures (mostly spheres)” value is “approximately 1.5 fold” and the “increase of overall branched structure-forming potential” value was 3 fold. In addition, the “cells giving rise to a TDLU-like structure (B-SFU)” value in experiment [3] (passage 1) was 1/290. Moreover, the “cells giving rise to a TDLU-like structure (B-SFU)” value in experiment [3] (passage 3) is 1/250.
With `C[C@@H](N)[C@H]1CC[C@H](C(=O)Nc2ccncc2)CC1` [Y-27632], in experiment [2] (3 μM Y-27632, added upon plating, removed after 5 days, floating collagen I gels, day 14, donor M8), the “increase of branched structure formation” value is listed as “approximately 5 fold”. In experiment [2] (continuous Y-27632 after 5 days of initial culture, data not shown), the “effect of continuous treatment on morphogenesis” value is reported as “dissolution of cell-cell adhesion”. The “acquisition of alveolar morphology after gel detachment” value in experiment [1] (5 μM Y-27632 every 24 hours from detachment at day 13) is “prevented”.
“TGF-β1: recombinant TGF-β1, morphogen that promotes contractility (R&D Systems)”: the “average cell size in treated structures versus controls” value in experiment [4] (TGF-β1-treated B+ derived structures, donor M8, phalloidin F-actin staining) is recorded as “significantly smaller”. Moreover, the “increase of contraction of the gels” value in experiment [4] (one-time treatment with 2.0 ng/ml recombinant TGF-β1 at day 12 of culture, gel size 2 days later, donors M3, M10) was “approximately 2 fold”. Further, the “effect on size of gels” value in experiment [5] (LP-derived spheres, donor M10) is reported as “did not have an effect”; in experiment [5] (M3 luminal cells), “slight contraction”.

Values taken from patent US10900018B2, “Means and methods for generation of breast stem cells” (Helmholtz Zentrum München—Deutsches Forschungszentrum Für …, priority 2015, dated 2021).
